{"source": "paper PMC10788915", "about": "“Fragment Merging, Growing, and Linking Identify New Trypanothione Reductase Inhibitors for Leishmaniasis” (Journal of Medicinal Chemistry, 2024)", "test_system": "L. infantum intramacrophage amastigotes", "experiment": "Ex vivo inhibition of intramacrophage amastigote growth", "type": "cell-based, Leishmania infantum", "details": "for EC50: 72 h, murine macrophages infected with L. infantum amastigotes, read-out: intramacrophage amastigote EC50 ± SE (95% CI)", "procedure": "Balb/c murine macrophages were used to perform ex vivo assay since the parasites infect them more effectively. Macrophages (5 × 10^5/well) were placed on glass coverslips within a 24-well culture plate and incubated with complete RPMI in a 5% CO2 incubator at 37 °C for 4 h to achieve cell adhesion. After this time, L. infantum amastigotes from spleens of previously infected hamsters were added onto the macrophages adhering to the coverslips at the ratio of 10:1 (parasites/macrophages). After 24 h of infection, the noninternalized amastigotes were removed by washes with RPMI. The infected macrophages were incubated with complete RPMI medium (control) or medium containing different concentrations of compounds in a 5% CO2 incubator at 37 °C for 72 h. Then, the coverslips were fixed with methanol, stained with Giemsa 10%, and analyzed by optical microscopy. The percentage of the infected macrophages and the number of amastigotes per infected macrophage were determined by random counting of 100 cells in each coverslip. Infection was judged to be adequate if more than 70% of the macrophages in the untreated control were infected. Activity for each compound was expressed as percentage of parasite burden reduction = infectivity index of treated cells/infectivity index of untreated cells. The infectivity index was calculated as follows: number of infected macrophages × mean number of amastigotes per macrophage / total number of macrophages. Nonlinear regression analysis (Graph-Pad Software Inc., San Diego, USA) was used for curve fitting and calculation of 50% inhibitory concentrations (IC50). The experiments were performed in triplicate, and two independent experiments were conducted.", "note": "Read-outs that look alike come from different tables or passages of the source."}
{"smiles": "C[N+]1(CCCc2ccccc2)CCN(C(=O)N(Cc2ccc(C(=O)NCCc3ccc(F)cc3)o2)c2ccc(F)cc2)CC1.[I-]", "note": "[Compound 9, 4-(((5-((4-Fluorophenethyl)carbamoyl)furan-2-yl)methyl)(4-fluorophenyl)carbamoyl)-1-methyl-1-(3-phenylpropyl)piperazin-1-ium Iodide]", "values": [{"measurement": "EC50", "setting": "Leishmania infantum, Macrophage, in Mus musculus", "value": 15.3, "unit": "µM"}, {"measurement": "EC50", "value": "15.3 ± 2.3", "unit": "µM"}]}
{"smiles": "O=C(NCCc1ccc(F)cc1)c1ccc(CNC(=O)N2CC[N+](CCCc3ccccc3)(Cc3ccc(Cl)c(Cl)c3)CC2)o1.[I-]", "note": "[Compound 14, 1-(3,4-Dichlorobenzyl)-4-(((5-((4-fluorophenethyl)carbamoyl)furan-2-yl)methyl)carbamoyl)-1-(3-phenylpropyl)piperazin-1-ium Iodide]", "values": [{"measurement": "intramacrophage amastigote reduction", "setting": "at 12.5 μM", "value": "40% of reduction at 12.5 μM"}]}
